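Five concentrations, 48 hours, 96-well plates. Abbreviation: GI50, concentration required for 50% inhibition of growth.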 Active and inactive are the calls of the source. No stated cut-off is given here; in the data, active = GI50 up to about 1.1 µM and inactive = higher.
Key:
Test in all cases: NCI tumour cell line growth inhibition, 48 h
786-0 = test system: 786-0
A498 = test system: A498
A549 = test system: A549
ACHN = test system: ACHN
BT-549 = test system: BT-549
CAKI-1 = test system: CAKI-1
COLO 205 = test system: COLO 205
DU-145 = test system: DU-145
EKVX = test system: EKVX
HCT-116 = test system: HCT-116
HCT-15 = test system: HCT-15
HL-60 = test system: HL-60
HOP-62 = test system: HOP-62
HOP-92 = test system: HOP-92
HT-29 = test system: HT-29
Hs-578T = test system: Hs-578T
IGROV-1 = test system: IGROV-1
K562 = test system: K562
KM12 = test system: KM12
LOX IMVI = test system: LOX IMVI
M14 = test system: M14
MCF7 = test system: MCF7
MDA-MB-231 = test system: MDA-MB-231
MDA-MB-435 = test system: MDA-MB-435
MDA-N = test system: MDA-N
MOLT-4 = test system: MOLT-4
Malme-3M = test system: Malme-3M
NCI-H226 = test system: NCI-H226
NCI-H23 = test system: NCI-H23
NCI-H460 = test system: NCI-H460
NCI-H522 = test system: NCI-H522
NCI/ADR-RES = test system: NCI/ADR-RES
OVCAR-3 = test system: OVCAR-3
OVCAR-4 = test system: OVCAR-4
OVCAR-5 = test system: OVCAR-5
OVCAR-8 = test system: OVCAR-8
PC-3 = test system: PC-3
RPMI-8226 = test system: RPMI-8226
RXF 393 = test system: RXF 393
SF-268 = test system: SF-268
SF-295 = test system: SF-295
SF-539 = test system: SF-539
SK-MEL-28 = test system: SK-MEL-28
SK-MEL-2 = test system: SK-MEL-2
SK-MEL-5 = test system: SK-MEL-5
SK-OV-3 = test system: SK-OV-3
SN12C = test system: SN12C
SNB-19 = test system: SNB-19
SNB-75 = test system: SNB-75
SR = test system: SR
SW-620 = test system: SW-620
T47D = test system: T47D
TK-10 = test system: TK-10
U-251 = test system: U-251
UACC-257 = test system: UACC-257
UACC-62 = test system: UACC-62
UO-31 = test system: UO-31
CCRF-CEM = test system: CCRF-CEM

Cc1nc(O)c2c3c(sc2n1)CCCC3
GI50 (786-0): 35.9 µM (inactive)
GI50 (A498): > 100 µM (inactive)
GI50 (A549): 78.5 µM (inactive)
GI50 (ACHN): 54.5 µM (inactive)
GI50 (BT-549): > 100 µM (inactive)
GI50 (CAKI-1): > 100 µM (inactive)
GI50 (COLO 205): > 100 µM (inactive)
GI50 (DU-145): > 100 µM (inactive)
GI50 (EKVX): 19.9 µM (inactive)
GI50 (HCT-116): 36.7 µM (inactive)
GI50 (HCT-15): > 100 µM
GI50 (HL-60): > 100 µM (inactive)
GI50 (HOP-62): > 100 µM (inactive)
GI50 (HOP-92): > 100 µM (inactive)
GI50 (HT-29): 54.7 µM (inactive)
GI50 (Hs-578T): > 100 µM (inactive)
GI50 (IGROV-1): > 100 µM (inactive)
GI50 (K562): 96.6 µM (inactive)
GI50 (KM12): > 100 µM (inactive)
GI50 (LOX IMVI): 72.4 µM (inactive)
GI50 (M14): > 100 µM (inactive)
GI50 (MCF7): 41.4 µM (inactive)
GI50 (MDA-MB-231): > 100 µM (inactive)
GI50 (MDA-MB-435): > 100 µM (inactive)
GI50 (MDA-N): 87.7 µM (inactive)
GI50 (MOLT-4): > 100 µM (inactive)
GI50 (Malme-3M): > 100 µM (inactive)
GI50 (NCI-H226): > 100 µM (inactive)
GI50 (NCI-H23): > 100 µM (inactive)
GI50 (NCI-H460): 0.284 µM (active)
GI50 (NCI-H522): > 100 µM (inactive)
GI50 (NCI/ADR-RES): > 100 µM (inactive)
GI50 (OVCAR-3): > 100 µM (inactive)
GI50 (OVCAR-4): > 100 µM (inactive)
GI50 (OVCAR-5): 60.7 µM (inactive)
GI50 (OVCAR-8): > 100 µM (inactive)
GI50 (PC-3): > 100 µM (inactive)
GI50 (RPMI-8226): 84.9 µM (inactive)
GI50 (RXF 393): > 100 µM (inactive)
GI50 (SF-268): > 100 µM (inactive)
GI50 (SF-295): > 100 µM (inactive)
GI50 (SF-539): 56.8 µM (inactive)
GI50 (SK-MEL-28): > 100 µM (inactive)
GI50 (SK-MEL-2): > 100 µM (inactive)
GI50 (SK-MEL-5): > 100 µM (inactive)
GI50 (SK-OV-3): > 100 µM (inactive)
GI50 (SN12C): 51.5 µM (inactive)
GI50 (SNB-19): > 100 µM (inactive)
GI50 (SNB-75): > 100 µM (inactive)
GI50 (SR): 27 µM (inactive)
GI50 (SW-620): > 100 µM (inactive)
GI50 (T47D): > 100 µM (inactive)
GI50 (TK-10): > 100 µM (inactive)
GI50 (U-251): 66.2 µM (inactive)
GI50 (UACC-257): > 100 µM (inactive)
GI50 (UACC-62): 58.2 µM (inactive)
GI50 (UO-31): 20.4 µM (inactive)

O=C(Oc1ccccc1)N1c2ccccc2[C@@]23O[C@]24CCC[C@H]3C#C/C=C\C#C[C@H]14
GI50 (786-0): 10.5 µM (inactive)
GI50 (A498): 14.3 µM (inactive)
GI50 (A549): 0.0942 µM (active)
GI50 (BT-549): 12.9 µM (inactive)
GI50 (CAKI-1): 13 µM (inactive)
GI50 (CCRF-CEM): 15.7 µM (inactive)
GI50 (COLO 205): 14.8 µM (inactive)
GI50 (DU-145): 1.05 µM (active)
GI50 (EKVX): 14.9 µM (inactive)
GI50 (HCT-116): 11.4 µM (inactive)
GI50 (HCT-15): 13.2 µM
GI50 (HL-60): 0.506 µM (active)
GI50 (HOP-62): 12.9 µM (inactive)
GI50 (HOP-92): 12.3 µM (inactive)
GI50 (HT-29): 11.2 µM (inactive)
GI50 (Hs-578T): 16.6 µM (inactive)
GI50 (IGROV-1): 12.4 µM (inactive)
GI50 (K562): 15.6 µM (inactive)
GI50 (KM12): 13.6 µM (inactive)
GI50 (LOX IMVI): 12.9 µM (inactive)
GI50 (M14): 15.2 µM (inactive)
GI50 (MCF7): 6.5 µM (inactive)
GI50 (MDA-MB-231): 12.3 µM (inactive)
GI50 (MDA-MB-435): 16.1 µM (inactive)
GI50 (MDA-N): 13.6 µM (inactive)
GI50 (MOLT-4): 0.706 µM (active)
GI50 (Malme-3M): 10.4 µM (inactive)
GI50 (NCI-H226): 17.4 µM (inactive)
GI50 (NCI-H23): 11.1 µM (inactive)
GI50 (NCI-H460): < 0.01 µM (active)
GI50 (NCI/ADR-RES): 14.4 µM (inactive)
GI50 (OVCAR-3): 13.3 µM (inactive)
GI50 (OVCAR-4): 6.85 µM (inactive)
GI50 (OVCAR-5): 11.8 µM (inactive)
GI50 (OVCAR-8): 11.9 µM (inactive)
GI50 (PC-3): 11.6 µM (inactive)
GI50 (RPMI-8226): 2.82 µM (inactive)
GI50 (RXF 393): 10.1 µM (inactive)
GI50 (SF-268): 13.6 µM (inactive)
GI50 (SF-295): 17.1 µM (inactive)
GI50 (SF-539): 20.4 µM (inactive)
GI50 (SK-MEL-28): 14 µM (inactive)
GI50 (SK-MEL-2): 11.8 µM (inactive)
GI50 (SK-OV-3): 0.173 µM (active)
GI50 (SN12C): 13.7 µM (inactive)
GI50 (SNB-19): 15.7 µM (inactive)
GI50 (SNB-75): 8.85 µM (inactive)
GI50 (SR): 10.4 µM (inactive)
GI50 (SW-620): 11.4 µM (inactive)
GI50 (T47D): 6.5 µM (inactive)
GI50 (TK-10): 19.9 µM (inactive)
GI50 (U-251): 16.7 µM (inactive)
GI50 (UACC-257): 14.9 µM (inactive)
GI50 (UACC-62): 7.48 µM (inactive)
GI50 (UO-31): 13.7 µM (inactive)

COc1ccc(NC=O)c(C(O)CCNC(C)=O)c1 (configuration not stated)
GI50 (786-0): > 100 µM (inactive)
GI50 (A498): > 100 µM (inactive)
GI50 (A549): > 100 µM (inactive)
GI50 (ACHN): > 100 µM (inactive)
GI50 (BT-549): > 100 µM (inactive)
GI50 (CAKI-1): > 100 µM (inactive)
GI50 (CCRF-CEM): > 100 µM (inactive)
GI50 (COLO 205): > 100 µM (inactive)
GI50 (DU-145): > 100 µM (inactive)
GI50 (EKVX): > 100 µM (inactive)
GI50 (HCT-116): > 100 µM (inactive)
GI50 (HCT-15): > 100 µM
GI50 (HL-60): > 100 µM (inactive)
GI50 (HOP-92): > 100 µM (inactive)
GI50 (HT-29): > 100 µM (inactive)
GI50 (Hs-578T): > 100 µM (inactive)
GI50 (IGROV-1): > 100 µM (inactive)
GI50 (K562): > 100 µM (inactive)
GI50 (KM12): > 100 µM (inactive)
GI50 (LOX IMVI): > 100 µM (inactive)
GI50 (M14): > 100 µM (inactive)
GI50 (MCF7): > 100 µM (inactive)
GI50 (MDA-MB-231): > 100 µM (inactive)
GI50 (MDA-MB-435): > 100 µM (inactive)
GI50 (MDA-N): > 100 µM (inactive)
GI50 (MOLT-4): > 100 µM (inactive)
GI50 (NCI-H226): > 100 µM (inactive)
GI50 (NCI-H23): > 100 µM (inactive)
GI50 (NCI-H460): > 100 µM (inactive)
GI50 (NCI-H522): > 100 µM (inactive)
GI50 (NCI/ADR-RES): > 100 µM (inactive)
GI50 (OVCAR-3): > 100 µM (inactive)
GI50 (OVCAR-4): > 100 µM (inactive)
GI50 (OVCAR-5): > 100 µM (inactive)
GI50 (OVCAR-8): > 100 µM (inactive)
GI50 (PC-3): > 100 µM (inactive)
GI50 (RPMI-8226): > 100 µM (inactive)
GI50 (RXF 393): > 100 µM (inactive)
GI50 (SF-268): > 100 µM (inactive)
GI50 (SF-295): > 100 µM (inactive)
GI50 (SF-539): > 100 µM (inactive)
GI50 (SK-MEL-2): > 100 µM (inactive)
GI50 (SK-MEL-5): > 100 µM (inactive)
GI50 (SK-OV-3): > 100 µM (inactive)
GI50 (SN12C): > 100 µM (inactive)
GI50 (SNB-19): > 100 µM (inactive)
GI50 (SNB-75): > 100 µM (inactive)
GI50 (SR): > 100 µM (inactive)
GI50 (SW-620): > 100 µM (inactive)
GI50 (T47D): > 100 µM (inactive)
GI50 (TK-10): > 100 µM (inactive)
GI50 (U-251): > 100 µM (inactive)
GI50 (UACC-257): > 100 µM (inactive)
GI50 (UACC-62): > 100 µM (inactive)
GI50 (UO-31): > 100 µM (inactive)
